# Values of other authors, collected in patent US20070053831A1, “Methods for binding agents to b-amyloid plaques” (priority 2003, published 2007).
# Test system: amyloid plaques
# Settings: cited from earlier work
compound,measurement,value
O=C(O)c1cc(/N=N/c2ccc(-c3ccc(/N=N/c4ccc(O)c(C(=O)O)c4)cc3)cc2)ccc1O [Chrysamine G],ability to label amyloid plaques in Alzheimer's brain,appears weak
